We go through 41 compounds from patent US11865176B2, “Compositions and methods of modulating anti-tumor immunity” (Dana-Farber Cancer Institute, Inc., priority 2016, dated 2024).

Values joined by “and” are separate entries in the source; they are usually repeats but may differ in a detail not shown here. Equal entries are not always repeated. Structures can show the parent of a compound that is named as a salt. Where two headings read alike, the source gives them in different places.

The test system of the experiment is PD-1-overexpressing Jurkat cells. Put plainly: Small molecule screen: IL2 secretion (AlphaLISA) from stimulated PD-1-overexpressing Jurkat cells. The class given is cell-based, human. In short, it runs like this: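 Cells (100,000/well) with compound at 3.3 μM final, stimulated by α-CD3/α-CD28/α-PD-1 Dynabeads at an 8:1 bead:cell ratio. IL2 in supernatants measured by AlphaLISA. Hits scored ≥3 SD from the mean of DMSO-treated, α-PD-1-bead-stimulated controls.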
For orientation: Bead proximity is the source of the signal in Alpha formats.

The mark [1] stands for this setting: IL2 level, replicate 1, 3.3 μM compound, α-CD3/α-CD28/α-PD-1 beads.
The mark [2] stands for this setting: IL2 level, replicate 2, 3.3 μM compound, α-CD3/α-CD28/α-PD-1 beads.
[3] abbreviates: average of replicate Z scores, 3.3 μM compound.

Compound `C[C@@H](N)[C@H]1CC[C@H](C(=O)Nc2ccncc2)CC1` [ROCK Inhibitor, Y-27632] showed a Zscore_1 under setting [1] of −3.269. Under setting [2], this compound displayed a Zscore_2 of −4.375. Under setting [3], this compound registered a Zscore_AVG of −3.822.

Turning to `CC(=O)O[C@@H]1[C@@H](OC(C)=O)[C@@H](O)[C@H](Oc2c(-c3ccc(O)cc3)oc3cc(O)cc(O)c3c2=O)O[C@H]1C` [RSK Inhibitor, SL0101], the Zscore_1 under setting [1] was found to be 1.689. Besides, the Zscore_2 under setting [2] is −0.3488. The Zscore_AVG under setting [3] turned out to be 0.67.

Compound `CO[C@H]1C[C@@H]2CC[C@@H](C)[C@@](O)(O2)C(=O)C(=O)N2CCCC[C@H]2C(=O)O[C@H]([C@H](C)C[C@@H]2CC[C@@H](O)[C@H](OC)C2)CC(=O)[C@H](C)/C=C(\C)[C@@H](O)[C@@H](OC)C(=O)[C@H](C)C[C@H](C)/C=C/C=C/C=C/1C` [Rapamycin] came in with a Zscore_1 under setting [1] of −1.883. Further, the Zscore_2 under setting [2] is given as −3.367. The Zscore_AVG under setting [3] is recorded as −2.625.

For `COc1ccc2nc3n[nH]c(C)c3c(NCCOCCO)c2c1` [Ras/Rac Transformation Blocker, SCH 51344], under setting [1], the Zscore_1 is −2.363. The Zscore_2 under setting [2] is reported as −3.128. Under setting [3], this compound yielded a Zscore_AVG of −2.746.

In turn, `c1nc2nc(Nc3ccc(N4CCOCC4)cc3)nc(NC3CCCCC3)c2[nH]1` [Reversine] returned a Zscore_1 under setting [1] of −3.512. Under setting [2], the Zscore_2 is −5.332. The compound also registered a Zscore_AVG under setting [3] of −4.422.

In turn, `c1ccc2c(-c3ccncc3)c[nH]c2c1` [Rho Kinase Inhibitor III, Rockout] displayed a Zscore_1 under setting [1] of −0.1806. For the same compound, the Zscore_2 under setting [2] is reported as −2.59. Besides, under setting [3], the Zscore_AVG is −1.385.

As to `O=C(Nc1ccncc1)Nc1c(Cl)cc(Cl)cc1Cl` [Rho Kinase Inhibitor II], the Zscore_1 under setting [1] was −1.746. The Zscore_2 under setting [2] was −1.88. The Zscore_AVG under setting [3] is recorded as −1.813.

For the compound `Cc1cncc2cccc(S(=O)(=O)N3CCCN(C(=O)CN)C[C@@H]3C)c12` [Rho Kinase Inhibitor IV], the Zscore_1 under setting [1] was −5.704. For the same compound, under setting [2], the Zscore_2 is −5.042. Also, the Zscore_AVG under setting [3] is on record as −5.373.

For `O=C(Nc1ccc(-c2cn[nH]c2)cc1)C1COc2ccccc2O1` (stereo not drawn) [Rho Kinase Inhibitor V], the Zscore_1 under setting [1] is given as −0.6152. Besides, the Zscore_2 under setting [2] was −2.172. Further, the Zscore_AVG under setting [3] is −1.394.

Under setting [1], `Cn1cc(C2=C(c3cn(CCCSC(=N)N)c4ccccc34)C(=O)NC2=O)c2ccccc21` [Ro-31-8220] registered a Zscore_1 of −5.987. This compound also returned a Zscore_2 under setting [2] of −6.268. This compound displayed a Zscore_AVG under setting [3] of −6.128.

As to `CC[C@H](CO)Nc1nc(NCc2ccccc2)c2ncn(C(C)C)c2n1` [Roscovitine], the Zscore_1 under setting [1] was −1.54. The Zscore_2 under setting [2] is recorded as −2.209. The compound further had a Zscore_AVG under setting [3] of −1.875.

With `Oc1ccc(-c2nc(-c3ccc(F)cc3)c(-c3ccncc3)[nH]2)cc1` [SB 202190], under setting [1], the Zscore_1 is −1.512. Under setting [2], this compound displayed a Zscore_2 of −3.097. The Zscore_AVG under setting [3] is given as −2.304.

As to `CCc1nc(-c2ccc(OC)cc2)[nH]c1-c1ccncc1` [SB 202474, Neg Con for p38 MAPK Inhibition Studies], the Zscore_1 under setting [1] was −2.475. The compound further returned a Zscore_2 under setting [2] of −0.6025. The compound further yielded a Zscore_AVG under setting [3] of −1.539.

As to `CS(=O)(=O)c1ccc(-c2nc(-c3ccc(F)cc3)c(-c3ccncc3)[nH]2)cc1` [SB 203580, Sulfone], the Zscore_1 is 2.85, the Zscore_2 is recorded as −0.6448 and the Zscore_AVG worked out at 1.103.

`C[S+]([O-])c1ccc(-c2nc(-c3ccc(F)cc3)c(-c3ccncc3)[nH]2)cc1` (stereo not drawn) [SB 203580] registered a Zscore_1 under setting [1] of −0.8209. In addition, under setting [2], the Zscore_2 was −0.02124. The compound further gave a Zscore_AVG under setting [3] of −0.4211.

The compound `O=C1NC(=O)c2c1c1c3ccccc3n3c1c1c2c2ccccc2n1C1CCC3O1` [SB 218078] registered a Zscore_1 under setting [1] of −0.8723. The same compound came in with a Zscore_2 under setting [2] of −1.561. The compound also gave a Zscore_AVG under setting [3] of −1.217.

As to `Nc1nccc(-c2c(-c3ccc(F)cc3)ncn2C2CCNCC2)n1` [SB 220025], under setting [1], the Zscore_1 was determined as 14.69. Also, under setting [2], the Zscore_2 is 27.59. For the same compound, the Zscore_AVG under setting [3] was determined as 21.14.

Regarding `COc1nccc(-c2c(-c3ccc(F)cc3)ncn2C2CCC(O)CC2)n1` (stereo not drawn) [SB 239063], the Zscore_1 under setting [1] is −0.08397. Under setting [2], the Zscore_2 is 1.041. Under setting [3], this compound had a Zscore_AVG of 0.4785.

With `Cc1nc(-c2ccccc2)c(-c2ccncc2)o1` [SC-68376], the Zscore_1 under setting [1] was −1.404. The Zscore_2 under setting [2] is recorded as −0.2868. Further, the Zscore_AVG under setting [3] is reported as −0.8452.

Under setting [1], `Fc1ccc(-c2nc3n(c2-c2ccncc2)CCS3)cc1` [SKF-86002] showed a Zscore_1 of −0.4953. The compound also showed a Zscore_2 under setting [2] of −2.331. Under setting [3], the Zscore_AVG is given as −1.413.

As for `O=C(O)c1ccc2c3c1cccc3c(=O)n1c3ccccc3nc21` [STO-609], under setting [1], the Zscore_1 was −1.71. Under setting [2], this compound had a Zscore_2 of −1.025. Also, the Zscore_AVG under setting [3] is listed as −1.368.

Turning to `CN(C)S(=O)(=O)c1ccc2c(c1)/C(=C/c1cc3c([nH]1)CCCC3)C(=O)N2` [SU6656], under setting [1], the Zscore_1 was 1.733. Under setting [2], the Zscore_2 was 1.333. Moreover, the Zscore_AVG under setting [3] was 1.533.

In the case of `COc1ccc2c(c1)/C(=C/c1cnc[nH]1)C(=O)N2` [SU9516], under setting [1], the Zscore_1 amounted to 8.231. In addition, under setting [2], the Zscore_2 is reported as 12.12. For the same compound, under setting [3], the Zscore_AVG was 10.18.

Under setting [1], `CCN(CC)CCNC(=O)c1c(C)[nH]c(/C=C2\C(=O)Nc3ccc(Cl)cc32)c1C` [SU11652] came in with a Zscore_1 of 8.033. The compound further showed a Zscore_2 under setting [2] of −6.691. Under setting [3], this compound registered a Zscore_AVG of 0.671.

Under setting [1], `Oc1ccc(Nc2nc(-c3ccc(Cl)cc3)cs2)cc1` [Sphingosine Kinase Inhibitor] yielded a Zscore_1 of −3.806. This compound also registered a Zscore_2 under setting [2] of −4.154. Under setting [3], this compound returned a Zscore_AVG of −3.98.

Turning to `COc1cc2ncnc(Nc3ccc(Oc4ccccc4)cc3)c2cc1OC` [Src Kinase Inhibitor I], the Zscore_1 under setting [1] is reported as 4.691. In addition, the Zscore_2 under setting [2] is 1.808. For the same compound, under setting [3], the Zscore_AVG is 3.249.

`CN[C@@H]1C[C@H]2O[C@@](C)([C@@H]1OC)n1c3ccccc3c3c4c(c5c6ccccc6n2c5c31)C(=O)NC4` [Staurosporine, Streptomyces sp.]: the Zscore_1 under setting [1] is −6.893 and −7.431. Besides, the Zscore_2 under setting [2] is −9.439 and −9.651. In addition, the Zscore_AVG under setting [3] was −8.166 and −8.541.

Consider `CC(C)(C)c1ccc(S(=O)(=O)Nc2ccc(-n3ccnc3)cc2)cc1` [Stem-Cell Factor/c-Kit Inhibitor, ISCK03], for which the Zscore_1 under setting [1] is −0.9751. Also, the Zscore_2 under setting [2] was −0.07435. The same compound had a Zscore_AVG under setting [3] of −0.5247.

`O=[N+]([O-])/C=C/c1ccc2c(c1)OCO2` [Syk Inhibitor III] gave a Zscore_1 under setting [1] of −0.8894. The Zscore_2 under setting [2] stood at 0.1912. The Zscore_AVG under setting [3] is listed as −0.3491.

Compound `NCCNc1ncc(C(N)=O)c(Nc2cccc(C(F)(F)F)c2)n1` [Syk Inhibitor II] returned a Zscore_1 under setting [1] of −0.7866. Besides, the Zscore_2 under setting [2] is given as −0.6851. Moreover, under setting [3], the Zscore_AVG is on record as −0.7358.

With `Cc1cccc(-c2[nH]c(C(C)(C)C)nc2-c2ccc3c(c2)OCO3)n1` [TGF-b RI Inhibitor III], under setting [1], the Zscore_1 is given as −0.4096. Under setting [2], this compound yielded a Zscore_2 of −0.6585. The same compound had a Zscore_AVG under setting [3] of −0.5341.

For the compound `c1ccc(-c2[nH]ncc2-c2ccnc3ccccc23)nc1` [TGF-b RI Kinase Inhibitor], the Zscore_1 under setting [1] was −0.7181. This compound also showed a Zscore_2 under setting [2] of −1.933. Under setting [3], this compound showed a Zscore_AVG of −1.326.

`Cc1cc(C=C2C(=O)C=CC2=O)cc(C)c1O` [TX-1918] showed a Zscore_1 under setting [1] of −0.9736. This compound came in with a Zscore_2 under setting [2] of −2.336. Under setting [3], the Zscore_AVG is reported as −1.655.

`N#Cc1cnc2cnc(NCc3cccnc3)cc2c1Nc1ccc(F)c(Cl)c1` [Tpl2 Kinase Inhibitor] yielded a Zscore_1 under setting [1] of −2.9. The compound further registered a Zscore_2 under setting [2] of −5.972. Further, the Zscore_AVG under setting [3] is given as −4.436.

In the case of `CN[C@@H]1C[C@H]2O[C@@](C)([C@@H]1OC)n1c3ccccc3c3c4c(c5c6ccccc6n2c5c31)C(=O)N[C@@H]4O` [UCN-01], the Zscore_1 under setting [1] was −7.46. Under setting [2], this compound gave a Zscore_2 of −8.298. Under setting [3], this compound showed a Zscore_AVG of −7.879.

Take `Cc1cc(C)c(/C=C2\C(=O)Nc3ccccc32)[nH]1` [VEGF Receptor 2 Kinase Inhibitor III]: under setting [1], the Zscore_1 is given as −0.2089. The Zscore_2 under setting [2] was −2.04. Further, the Zscore_AVG under setting [3] was −1.124.

In turn, `O=C1Nc2ccc(Br)cc2/C1=C/c1cc2c([nH]1)CCCC2` [VEGF Receptor 2 Kinase Inhibitor II] returned a Zscore_1 under setting [1] of 0.1217. Further, the Zscore_2 under setting [2] is −0.1806. In addition, the Zscore_AVG under setting [3] is given as −0.02944.

The compound `COc1ccc(-c2cnc3c(-c4ccsc4)cnn3c2)cc1` [VEGF Receptor 2 Kinase Inhibitor IV] displayed a Zscore_1 under setting [1] of −1.795. This compound displayed a Zscore_2 under setting [2] of 1.512. Under setting [3], this compound returned a Zscore_AVG of −0.1417.

The compound `CCOC(=O)c1c(C)[nH]c(/C=C2\C(=O)Nc3ccccc32)c1C` [VEGF Receptor 2 Kinase Inhibitor I] displayed a Zscore_1 under setting [1] of −0.8038. Also, the Zscore_2 under setting [2] is recorded as −1.721. The compound further gave a Zscore_AVG under setting [3] of −1.262.

In the case of `O=C(Nc1ccc(Cl)cc1)c1ccccc1NCc1ccncc1` [VEGF Receptor Tyrosine Kinase Inhibitor II], the Zscore_1 under setting [1] is on record as −1.404. Besides, the Zscore_2 under setting [2] is −0.1009. In addition, the Zscore_AVG under setting [3] is given as −0.7522.

`COc1cc2ncnc(Nc3cccc(O)c3)c2cc1OC` [WHI-P180, Hydrochloride]: the Zscore_1 under setting [1] is −4.627. The Zscore_2 under setting [2] was −4.112. For the same compound, the Zscore_AVG under setting [3] was −4.37.
